This experiment deals with T1, human recombinant mGluR5 (Homo sapiens, UniProt P41594).
T1 construct: expressed in transfected cells; host or cells: HEK 293 cell line, cultured with tetracycline, hygromycin and geneticin; tetracycline is withdrawn 3-7 days before the assay
T1 sequence (P41594 21-1212): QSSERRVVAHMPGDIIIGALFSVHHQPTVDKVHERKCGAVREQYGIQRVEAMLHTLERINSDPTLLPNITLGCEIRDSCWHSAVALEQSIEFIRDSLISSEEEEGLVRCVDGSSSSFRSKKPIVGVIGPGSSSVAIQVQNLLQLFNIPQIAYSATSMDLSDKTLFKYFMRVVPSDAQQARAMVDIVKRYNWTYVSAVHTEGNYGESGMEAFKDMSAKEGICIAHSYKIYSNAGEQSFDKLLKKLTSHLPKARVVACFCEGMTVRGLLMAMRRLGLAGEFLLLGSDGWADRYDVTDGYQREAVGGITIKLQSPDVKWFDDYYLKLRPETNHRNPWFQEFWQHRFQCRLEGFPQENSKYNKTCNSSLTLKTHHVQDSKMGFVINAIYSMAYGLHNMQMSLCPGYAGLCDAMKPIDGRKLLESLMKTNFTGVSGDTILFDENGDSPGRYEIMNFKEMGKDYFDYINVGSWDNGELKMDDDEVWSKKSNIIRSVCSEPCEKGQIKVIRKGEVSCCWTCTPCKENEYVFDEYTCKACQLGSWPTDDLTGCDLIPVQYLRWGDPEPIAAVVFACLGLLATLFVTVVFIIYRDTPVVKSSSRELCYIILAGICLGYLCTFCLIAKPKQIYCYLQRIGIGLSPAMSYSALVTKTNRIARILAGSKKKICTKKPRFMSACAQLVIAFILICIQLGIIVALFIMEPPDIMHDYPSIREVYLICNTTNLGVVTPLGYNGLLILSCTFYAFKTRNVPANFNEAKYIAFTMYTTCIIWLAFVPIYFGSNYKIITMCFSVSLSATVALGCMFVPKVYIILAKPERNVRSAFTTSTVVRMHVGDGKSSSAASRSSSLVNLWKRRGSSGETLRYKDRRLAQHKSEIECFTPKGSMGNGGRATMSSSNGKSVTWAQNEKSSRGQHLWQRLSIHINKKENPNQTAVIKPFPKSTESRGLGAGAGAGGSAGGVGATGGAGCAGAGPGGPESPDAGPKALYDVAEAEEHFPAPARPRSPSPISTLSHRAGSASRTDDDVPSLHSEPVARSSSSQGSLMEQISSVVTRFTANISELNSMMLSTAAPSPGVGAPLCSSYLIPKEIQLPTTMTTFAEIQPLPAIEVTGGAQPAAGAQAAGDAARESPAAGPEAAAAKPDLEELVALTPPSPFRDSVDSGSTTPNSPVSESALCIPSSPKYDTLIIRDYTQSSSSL
The experiment in a line: positive modulation of mGluR5, calcium based FLIPR assay. The note with it: EC50 of the modulation; HEK 293 cell line expressing human recombinant mGluR5; peak height of Ca fluorescence signal after glutamate at approx. 5% basal stimulation; read-out: EC50. The class given is cell-based. The procedure: The positive modulation of mGluR5 is measured in a HEK 293 cell line expressing human recombinant mGluR5 and is detected with calcium based FLIPR assay. The cells are cultured with DMEM supplemented with 10% FCS, 2 μg/mL tetracycline, 100 μg/mL hygromycin and 500 μg/mL gneticin. The cell culture media is exchanged for tetracycline-free cell culture media 3-7 days before the assay. One day before the assay the cell culture medium is exchanged to DMEM without glutamine and phenol red and supplemented with 10% FCS, 100 μg/mL hygromycin and 500 μg/mL geneticin. On the assay day, the medium of the subconfluent cultures is removed and the cells are detached by addition of 2.5 ml EDTA (0.02%) per 175 cm2 culture flask for 1 minute. The cells are resuspend in Ringer solution (140 mM NaCl, 5 mM KCl, 2.5 mM CaCl2, 1.5 mM MgCl2, 5 mM Glucose, 10 mM Hepes; adjusted to pH 7.4 with NaOH), pooled and Ringer solution added to adjust the volume to 50 mL. The cell suspension is centrifuged for 5 min at 1500 U/min (425 g). The supernatant is removed and the cells washed a second time with 50 ml fresh Ringer solution and centrifuged again as before. The supernatant is again removed and the pellet resuspended in Ringer solution to 1,000,000 cells/ml (1×10^6 cells/mL). The cells are plated onto BD BioCoat Poly-D-Lysine 384 well plates (20.000 cells/well; 20 μl/well). The lid covered plates are then incubated until use at 37° C./10% CO2. For dye loading, 20 μl of Calcium-4 assay kit solution (prepared according to the manufacturer's description in Ringer solution) are added to the cells and the plates are incubated for 80 min 37° C. and then 10 min at room temperature. • Controls, Compound dilution and assay execution: • Each assay plate contained wells with “high” and “low” controls:
Low controls 1% DMSO/ringer solution+basal glutamate activation (defined as 100% CTL).
High controls 10 μM CDPPB+basal glutamate activation (defined as 200% CTL).
Test compounds are dissolved and diluted in DMSO to 100-fold the desired concentrations. In a second step, the compounds are diluted in Ringer solution such that the compounds are 4-fold more concentrated than the desired final assay concentration. The final DMSO concentration was 1%.
20 μl of each compound solution are then transferred to the assay plate and the Ca2+ kinetic is measured to determine any intrinsic compound activity. After 5 min incubation in the FLIPR device, the second stimulation with 20 μl of glutamate in Ringer solution (glutamate concentration adjusted to approximately 5% basal stimulation of the maximal possible glutamate effect) is added and the kinetic Ca2+ response of the wells was measured for the modulation effect.
The peak height of the Ca release related fluorescence signal (9-66) is used for the EC50. The EC50 of the modulation is calculated over a nonlinear regression with GraphPad Prism (Table 1).
For orientation: EC50 means the concentration needed to bring the measured effect to its halfway point. Turning to `COc1ccc2c(c1)CCN(C(=O)Cn1nc(-c3ccc(F)cc3)nc1-c1ccc(F)cc1)C2` [Example 7.02.44.], the EC50 was 0.211 µM.
As to `CCCCCc1nc(-c2ccc(F)c(C)c2)nn1CC(=O)N1CCc2nc(N)sc2CC1` [Example 7.03.111.], the EC50 is 0.09 µM.
`COc1cccc2c1CN(C(=O)Cn1nc(-c3ccc(F)cc3)nc1-c1ccc(F)cc1)C2` [Example 7.02.46.]: the EC50 is 0.381 µM.
Next, `Cc1ccnc(C2=CCN(C(=O)Cn3nc(-c4ccc(F)c(C)c4)nc3C(C)C)CC2)c1` [Example 7.03.078.]: 0.803 µM; `Cn1ncc2c1CN(C(=O)Cn1nc(-c3ccc(F)cc3)nc1-c1ccc(F)cc1)C2` [Example 7.02.49.]: 1.36 µM; `COc1cnc(C2=CCN(C(=O)Cn3nc(-c4ccc(F)c(C)c4)nc3C(C)C)CC2)nc1` [Example 7.03.080.]: 1.14 µM.
Next, `Cc1noc(C2CCN(C(=O)Cn3nc(-c4ccc(F)cc4)nc3-c3ccc(F)cc3)CC2)n1` [Example 7.02.61.]: 0.511 µM; `O=C(Cn1nc(-c2ccc(F)cc2)nc1-c1ccc(F)cc1)N1CCC(c2ccccn2)C1` (stereo not drawn) [Example 7.02.64.]: 0.976 µM; `COc1ccc2c(c1)CN(C(=O)Cn1nc(-c3ccc(F)cc3)nc1-c1ccc(F)cc1)C2` [Example 7.02.47.]: 0.206 µM.
For `COc1ccc2c(n1)CCN(C(=O)Cn1nc(-c3ccc(F)c(C)c3)nc1-c1ccccc1)CC2` [Example 7.02.83.], the EC50 was 0.105 µM.
Next, `CC1CN(C(=O)Cn2nc(-c3ccc(F)cc3)nc2-c2ccc(F)cc2)CCN1c1ncccn1` (stereo not drawn) [Example 7.03.118.]: 0.211 µM; `Cc1nc2c(s1)CN(C(=O)Cn1nc(-c3ccc(F)c(C)c3)nc1C1CCCCC1)C2` [Example 7.03.060.]: 0.255 µM; `O=C(Cn1nc(-c2ccc(F)cc2)nc1-c1ccc(F)cc1)N1CCc2nc(C3CCOCC3)sc2CC1` [Example 7.03.031.]: 1.78 µM.
Next, `Cc1nc2c(s1)CN(C(=O)Cn1nc(-c3ccc(F)c(C)c3)nc1-c1ccccc1)C2` [Example 7.03.066.]: 0.071 µM; `CCCCc1nc(-c2ccc(F)c(C)c2)nn1CC(=O)N1CCc2nc(C)sc2CC1` [Example 7.03.103.]: 0.113 µM.
Next, `COc1ccc(-c2nc(-c3ccc(F)cc3)nn2CC(=O)N2CCc3nc(C)sc3CC2)cc1` [Example 7.03.058.]: 0.117 µM; `Cc1nc2c(s1)CC(C)N(C(=O)Cn1nc(-c3ccc(F)cc3)nc1-c1ccc(F)cc1)CC2` (stereo not drawn) [Example 7.03.121.]: 0.259 µM; `COc1cc(C2=CCN(C(=O)Cn3nc(-c4ccc(F)cc4)nc3-c3ccc(F)cc3)CC2)ncn1` [Example 7.03.025.]: 0.097 µM.
In the case of `O=C(Cn1nc(-c2ccc(F)cc2)nc1-c1ccc(F)cc1)N1CCC(c2ccon2)CC1` [Example 7.02.52.], the EC50 stood at 0.472 µM.
Next, `CCCc1nc(-c2ccc(OC(F)F)cc2)nn1CC(=O)N1CCN(c2noc(C)n2)CC1` [Example 7.03.130]: 0.481 µM; `Cc1nc2c(o1)CN(C(=O)Cn1nc(-c3ccc(F)cc3)nc1-c1ccc(F)cc1)C2` [Example 7.03.124]: 0.061 µM; `Cc1nc2c(s1)CCN(C(=O)Cn1nc(-c3ccc(F)c(C)c3)nc1C1CCCCC1)CC2` [Example 7.03.062.]: 0.155 µM.
Next, `Cc1nc2c(s1)CN(C(=O)Cn1nc(-c3ccc(OC(F)F)cc3)nc1-c1ccccc1)C2` [Example 7.03.128]: 0.085 µM; `O=C(Cn1nc(-c2ccc(F)cc2)nc1-c1ccc(F)cc1)N1CCN(C2=NCCO2)CC1` [Example 7.03.042.]: 0.885 µM; `O=C(Cn1nc(-c2ccc(F)cc2)nc1-c1ccc(F)cc1)N1CCN(c2ncnc3ccccc23)CC1` [07.03.141^]: 1.12 µM.
Next, `Cc1cc(-c2nc(C3CCCC3)n(CC(=O)N3CCc4nc(N)sc4CC3)n2)ccc1F` [Example 7.03.106.]: 0.251 µM; `COc1cc(-c2nc(-c3ccc(F)cc3)n(CC(=O)N3CCc4nc(C)sc4CC3)n2)ccc1F` [Example 7.03.089.]: 0.071 µM.
Regarding `Cc1nnc(N2CCN(C(=O)Cn3nc(-c4ccc(OC(F)F)cc4)nc3-c3ccccc3)CC2)o1` [Example 7.03.134], the EC50 amounted to 0.129 µM.
Next, `O=C(Cn1nc(-c2ccc(F)cc2)nc1-c1ccc(F)cc1)N1CCc2ncsc2CC1` [Example 7.03.011.]: 0.453 µM; `CNc1nc2c(s1)CCN(C(=O)Cn1nc(-c3ccc(F)cc3)nc1-c1ccc(F)cc1)CC2` [Example 7.04.02.]: 0.132 µM; `CCCc1nc(-c2ccc(OC(F)F)cc2)nn1CC(=O)N1CCc2nc(C)sc2CC1` [Example 7.03.131]: 0.316 µM.
On to `CC(C)NC(=O)Nc1nc2c(s1)CN(C(=O)Cn1nc(-c3ccc(F)cc3)nc1-c1ccc(F)cc1)CC2` [Example 7.02.16.], for which the EC50 was 1.36 µM.
Next, `Cc1nc2c(o1)CCN(C(=O)Cn1nc(-c3ccc(F)cc3)nc1-c1ccc(F)cc1)C2` [Example 7.02.65.]: 0.407 µM; `O=C(Cn1nc(-c2ccc(F)cc2)nc1-c1ccc(F)cc1)N1CCc2cn[nH]c2CC1` [Example 7.02.51.]: 0.707 µM; `COc1ccc(-c2nc(-c3ccccc3)n(CC(=O)N3CCN(c4ccccn4)C(=O)C3)n2)cc1` [Example 7.03.053.]: 0.242 µM.
Next, `O=C(Cn1nc(-c2ccc(F)cc2)nc1-c1ccc(F)cc1)N1CCc2ncsc2CC1` [Example 7.06.01., 2-(3,5-bis-(4-Fluoro-phenyl)-(1,2,4)triazol-1-yl]-1-(4,5,7,8-tetrahydro-thiazolo[4,5-d]azepin-6-yl)-ethanone]: 1.13 µM; `Cc1nc2c(s1)C(C)CN(C(=O)Cn1nc(-c3ccc(F)cc3)nc1-c1ccc(F)cc1)CC2` (stereo not drawn) [Example 7.03.037.]: 0.312 µM.
Next, `Cc1cc(-c2nc(-c3ccccc3)n(CC(=O)N3CCc4cn[nH]c4CC3)n2)ccc1F` [Example 7.02.89.]: 0.194 µM.
As to `O=C(Cn1nc(-c2ccc(F)cc2)nc1-c1ccc(F)cc1)N1CCC(n2nc(-c3cccs3)ccc2=O)CC1` [Example 7.02.31.], the concentration for a half-maximal effect (EC50) was 1.78 µM.
Next, `O=C(Cn1nc(-c2ccc(F)cc2)nc1-c1ccc(F)cc1)N1CC=C(c2ccccn2)CC1` [Example 7.03.024.]: 0.107 µM; `Nc1nc2c(s1)CCN(C(=O)Cn1nc(-c3ccc(F)cc3)nc1-c1ccc(F)cc1)CC2` [Example 7.03.013.]: 0.141 µM.
Next, `COc1ccc2c(c1)CCN(C(=O)Cn1nc(-c3ccc(F)cc3)nc1-c1ccc(F)cc1)C2C` (stereo not drawn) [Example 7.02.36.]: 1.09 µM; `N#Cc1ccc2c(c1)CCN(C(=O)Cn1nc(-c3ccc(F)cc3)nc1-c1ccc(F)cc1)C2` [Example 7.02.48.]: 0.972 µM.
Next, `O=C(Cn1nc(-c2ccc(F)cc2)nc1-c1ccc(F)cc1)N1CCC(Oc2ccccc2)CC1` [Example 7.03.005.]: 0.958 µM.
For the compound `CNC(=O)Nc1nc2c(s1)CN(C(=O)Cn1nc(-c3ccc(F)cc3)nc1-c1ccc(F)cc1)CC2` [Example 7.02.17.], the EC50 is 1.06 µM.
Consider `O=C(Cn1nc(-c2ccc(F)cc2)nc1-c1ccc(F)cc1)N1CCc2ccccc2CC1` [Example 7.02.12.], for which the EC50 was determined as 1.02 µM.
Next, `Cc1cc(-c2nc(C3CCCC(C)C3)n(CC(=O)N3CCc4nc(N)sc4CC3)n2)ccc1F` (stereo not drawn) [Example 7.03.095.]: 0.61 µM; `O=C(Cn1nc(-c2ccc(F)cc2)nc1-c1ccc(F)cc1)N1CCC(c2noc3ccc(F)cc23)CC1` [Example 7.02.28.]: 0.644 µM.
Next, `COc1ccc2c(c1)CCN(C(=O)Cn1nc(-c3ccc(F)cc3)nc1-c1ccc(F)cc1)CC2` [Example 7.02.39.]: 0.279 µM; `O=C(Cn1nc(-c2ccc(F)cc2)nc1-c1ccc(F)cc1)N1CCN(c2ncnc3c2SCC3)CC1` [Example 7.02.76.]: 0.242 µM.
Next, `O=C(Cn1nc(-c2ccc(F)cc2)nc1-c1ccc(F)cc1)N1CCc2cccnc2CC1` [Example 7.02.67.]: 0.133 µM.

Source of the values: patent US8642774B2, “Compounds” (Boehringer Ingelheim International GmbH, priority 2011, dated 2014).
